US8822500B2, “Tyrosine kinase inhibitors” (Chembridge Corporation, priority 2008, dated 2014)
Where two headings read alike, the source gives them in different places.

Experiments:
RET = RET (Homo sapiens (Human), UniProt P07949); experiment: In vitro kinase activity assay (LANCE TR-FRET); assay type: biochemical; details: read-out: RET (nM) IC50
TrkA = TrkA (Homo sapiens (Human), UniProt P04629); experiment: In vitro kinase activity assay (LANCE TR-FRET); assay type: biochemical;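 note: kinase reaction with poly-GT peptide substrate and ATP, phosphorylated product quantified by time-resolved FRET, eleven-point dose curves from 10^−11 to 10^−5 M in triplicate, DMSO as negative control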
TrkA, sequence (P04629 33-796): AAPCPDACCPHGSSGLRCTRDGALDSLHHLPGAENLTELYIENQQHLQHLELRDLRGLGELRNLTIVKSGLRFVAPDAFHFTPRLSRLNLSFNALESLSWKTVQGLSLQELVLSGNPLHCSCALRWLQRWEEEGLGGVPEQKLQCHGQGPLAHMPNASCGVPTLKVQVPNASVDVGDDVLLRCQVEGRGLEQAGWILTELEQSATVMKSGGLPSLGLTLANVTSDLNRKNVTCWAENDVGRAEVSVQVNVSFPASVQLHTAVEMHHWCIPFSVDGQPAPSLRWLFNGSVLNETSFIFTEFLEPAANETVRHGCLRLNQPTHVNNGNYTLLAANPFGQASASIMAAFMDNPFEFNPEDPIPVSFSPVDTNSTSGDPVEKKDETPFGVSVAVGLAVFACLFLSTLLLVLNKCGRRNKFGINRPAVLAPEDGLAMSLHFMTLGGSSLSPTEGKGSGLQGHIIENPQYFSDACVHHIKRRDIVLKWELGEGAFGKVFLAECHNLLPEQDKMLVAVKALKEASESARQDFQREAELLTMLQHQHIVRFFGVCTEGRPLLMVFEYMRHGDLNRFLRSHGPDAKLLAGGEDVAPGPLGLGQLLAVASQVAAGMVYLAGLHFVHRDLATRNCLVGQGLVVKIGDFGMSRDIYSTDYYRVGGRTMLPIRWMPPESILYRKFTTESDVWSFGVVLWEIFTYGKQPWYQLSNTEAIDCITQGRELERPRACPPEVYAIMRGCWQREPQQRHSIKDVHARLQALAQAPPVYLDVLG

SUDHL-1 lymphoma cells = experiment: Cellular assay, 3 day cell viability (WST-1); assay type: cell-based; details: Homo sapiens, SU-DHL-1, 72 h
U937 lymphoma cells = experiment: Cellular assay, 3 day cell viability (WST-1); assay type: cell-based; details: Homo sapiens, U-937, 72 h
ALK = ALK (Homo sapiens (Human), UniProt Q9UM73); experiment: In vitro kinase activity assay (LANCE TR-FRET); assay type: biochemical;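 note: kinase reactions with ATP and a poly-GT peptide substrate, phosphorylated product read by time-resolved FRET, 11-point curve from 10^−11 to 10^−5 M, DMSO as negative control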
ALK, sequence (Q9UM73 19-1620): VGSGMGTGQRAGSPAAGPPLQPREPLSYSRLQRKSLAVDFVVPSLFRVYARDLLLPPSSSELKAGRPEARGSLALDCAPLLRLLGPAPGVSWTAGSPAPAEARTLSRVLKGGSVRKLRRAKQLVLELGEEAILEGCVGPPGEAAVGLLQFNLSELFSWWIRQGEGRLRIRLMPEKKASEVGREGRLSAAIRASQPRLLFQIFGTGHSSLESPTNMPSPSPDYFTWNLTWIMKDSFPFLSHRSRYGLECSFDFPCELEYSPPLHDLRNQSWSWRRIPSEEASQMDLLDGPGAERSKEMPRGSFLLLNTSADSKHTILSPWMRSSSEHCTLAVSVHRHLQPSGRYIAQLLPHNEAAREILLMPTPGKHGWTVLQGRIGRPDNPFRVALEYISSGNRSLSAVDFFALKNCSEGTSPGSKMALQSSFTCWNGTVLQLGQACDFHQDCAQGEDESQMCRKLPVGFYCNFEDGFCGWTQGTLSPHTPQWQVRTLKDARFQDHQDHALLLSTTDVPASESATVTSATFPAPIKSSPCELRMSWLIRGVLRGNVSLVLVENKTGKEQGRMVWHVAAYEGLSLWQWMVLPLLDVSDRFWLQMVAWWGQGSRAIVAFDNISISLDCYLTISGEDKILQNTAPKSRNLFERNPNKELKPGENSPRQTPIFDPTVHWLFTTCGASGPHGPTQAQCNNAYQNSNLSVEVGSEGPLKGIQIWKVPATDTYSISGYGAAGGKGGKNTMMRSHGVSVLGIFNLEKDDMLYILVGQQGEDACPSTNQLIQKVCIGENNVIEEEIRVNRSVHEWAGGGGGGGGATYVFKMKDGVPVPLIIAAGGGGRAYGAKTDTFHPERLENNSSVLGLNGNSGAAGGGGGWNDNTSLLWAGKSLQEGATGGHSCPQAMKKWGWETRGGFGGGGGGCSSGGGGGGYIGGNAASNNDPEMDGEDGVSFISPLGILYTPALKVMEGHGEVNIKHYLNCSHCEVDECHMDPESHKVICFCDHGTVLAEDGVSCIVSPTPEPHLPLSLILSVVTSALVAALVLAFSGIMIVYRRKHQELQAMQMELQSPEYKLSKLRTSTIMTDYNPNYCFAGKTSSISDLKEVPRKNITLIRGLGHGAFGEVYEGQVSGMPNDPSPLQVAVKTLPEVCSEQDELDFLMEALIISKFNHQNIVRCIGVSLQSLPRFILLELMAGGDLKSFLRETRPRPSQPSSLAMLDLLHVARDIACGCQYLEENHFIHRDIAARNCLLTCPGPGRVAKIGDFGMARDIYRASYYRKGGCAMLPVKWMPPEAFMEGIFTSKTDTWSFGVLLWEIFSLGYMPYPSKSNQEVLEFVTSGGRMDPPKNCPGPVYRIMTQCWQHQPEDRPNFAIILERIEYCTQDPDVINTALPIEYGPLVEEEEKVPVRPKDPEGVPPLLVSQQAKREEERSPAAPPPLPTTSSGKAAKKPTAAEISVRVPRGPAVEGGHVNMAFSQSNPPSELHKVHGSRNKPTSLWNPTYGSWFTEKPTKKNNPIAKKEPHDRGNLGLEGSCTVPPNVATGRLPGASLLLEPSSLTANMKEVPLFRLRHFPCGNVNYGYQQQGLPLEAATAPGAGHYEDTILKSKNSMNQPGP

cMET = cMET (Homo sapiens (Human), UniProt P08581); experiment: In vitro kinase activity assay (LANCE TR-FRET); assay type: biochemical
cMET, sequence (P08581 25-1390): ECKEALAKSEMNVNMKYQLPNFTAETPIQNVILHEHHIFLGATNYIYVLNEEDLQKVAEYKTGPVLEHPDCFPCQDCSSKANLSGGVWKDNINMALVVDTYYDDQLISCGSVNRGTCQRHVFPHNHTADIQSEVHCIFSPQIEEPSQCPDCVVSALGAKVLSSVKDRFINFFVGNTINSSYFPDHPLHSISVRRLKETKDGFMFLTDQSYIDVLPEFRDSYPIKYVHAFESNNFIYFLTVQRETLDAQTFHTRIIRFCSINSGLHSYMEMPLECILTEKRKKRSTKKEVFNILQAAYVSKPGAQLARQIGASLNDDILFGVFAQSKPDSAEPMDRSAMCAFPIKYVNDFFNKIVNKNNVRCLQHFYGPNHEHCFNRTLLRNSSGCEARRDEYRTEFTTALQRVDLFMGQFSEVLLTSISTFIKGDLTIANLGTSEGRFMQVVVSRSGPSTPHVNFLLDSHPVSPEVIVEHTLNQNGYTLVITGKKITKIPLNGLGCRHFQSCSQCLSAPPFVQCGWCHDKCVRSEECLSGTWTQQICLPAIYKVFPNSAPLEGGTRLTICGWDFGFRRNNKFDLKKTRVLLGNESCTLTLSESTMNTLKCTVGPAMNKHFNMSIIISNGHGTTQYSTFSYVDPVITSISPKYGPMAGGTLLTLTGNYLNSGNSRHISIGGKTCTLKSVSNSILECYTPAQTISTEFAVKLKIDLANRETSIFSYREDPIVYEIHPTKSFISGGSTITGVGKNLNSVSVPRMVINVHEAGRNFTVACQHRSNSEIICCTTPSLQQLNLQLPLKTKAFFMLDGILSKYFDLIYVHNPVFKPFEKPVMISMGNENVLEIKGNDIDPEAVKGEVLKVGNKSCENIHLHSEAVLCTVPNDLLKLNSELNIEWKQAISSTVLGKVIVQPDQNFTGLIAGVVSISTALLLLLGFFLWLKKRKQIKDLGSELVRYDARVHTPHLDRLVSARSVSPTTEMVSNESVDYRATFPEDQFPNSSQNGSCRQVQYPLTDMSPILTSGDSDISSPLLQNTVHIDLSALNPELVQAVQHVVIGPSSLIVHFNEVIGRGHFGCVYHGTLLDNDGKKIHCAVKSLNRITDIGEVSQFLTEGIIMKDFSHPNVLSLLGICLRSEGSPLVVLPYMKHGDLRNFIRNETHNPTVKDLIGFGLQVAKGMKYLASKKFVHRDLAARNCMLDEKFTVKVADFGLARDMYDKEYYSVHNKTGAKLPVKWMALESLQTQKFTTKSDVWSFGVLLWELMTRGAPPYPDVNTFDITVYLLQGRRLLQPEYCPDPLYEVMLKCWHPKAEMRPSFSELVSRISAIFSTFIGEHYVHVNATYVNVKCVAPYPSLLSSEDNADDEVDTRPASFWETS

in vitro [1] = details: rat, microsomes; for half-life at 0.5 μM: pH 7.4; for microsomal CLint at 0.5 μM: pH 7.4, Rat LM-P1 CL (ul/min/mg)
in vitro [2] = details: human, microsomes; for microsomal CLint at 0.5 μM: pH 7.4, Human LM-P1 CL (ul/min/mg); for half-life at 0.5 μM: pH 7.4, Human LM-P1 Half-life (min)
K299 lymphoma cells = experiment: Cellular assay, 3 day cell viability (WST-1); assay type: cell-based; details: 72 h, 3 days, read-out: K299 IC50
[3] = Metabolic stability, Phase I microsome reactions; assay type: in vitro ADME, mouse; details: mouse, liver microsomes, pH 7.4, Phase I only, 1.0 mg/ml microsomes; for microsomal CLint at 0.5 μM: read-out: Mouse LM-P1 CL; for half-life at 0.5 μM: read-out: Mouse LM-P1 Half-life
[4] = molecular target: T1, hERG (human ether-a-go-go related gene) potassium channel (Homo sapiens (Human), UniProt Q12809); experiment: hERG potassium channel current, automated patch clamp (PatchXpress 7000A);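 note: Four-point series of 0.3, 3, 10 and 30 µM, two cells recorded per concentration, 5 min exposure at each level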
T1 sequence (Q12809 whole entry): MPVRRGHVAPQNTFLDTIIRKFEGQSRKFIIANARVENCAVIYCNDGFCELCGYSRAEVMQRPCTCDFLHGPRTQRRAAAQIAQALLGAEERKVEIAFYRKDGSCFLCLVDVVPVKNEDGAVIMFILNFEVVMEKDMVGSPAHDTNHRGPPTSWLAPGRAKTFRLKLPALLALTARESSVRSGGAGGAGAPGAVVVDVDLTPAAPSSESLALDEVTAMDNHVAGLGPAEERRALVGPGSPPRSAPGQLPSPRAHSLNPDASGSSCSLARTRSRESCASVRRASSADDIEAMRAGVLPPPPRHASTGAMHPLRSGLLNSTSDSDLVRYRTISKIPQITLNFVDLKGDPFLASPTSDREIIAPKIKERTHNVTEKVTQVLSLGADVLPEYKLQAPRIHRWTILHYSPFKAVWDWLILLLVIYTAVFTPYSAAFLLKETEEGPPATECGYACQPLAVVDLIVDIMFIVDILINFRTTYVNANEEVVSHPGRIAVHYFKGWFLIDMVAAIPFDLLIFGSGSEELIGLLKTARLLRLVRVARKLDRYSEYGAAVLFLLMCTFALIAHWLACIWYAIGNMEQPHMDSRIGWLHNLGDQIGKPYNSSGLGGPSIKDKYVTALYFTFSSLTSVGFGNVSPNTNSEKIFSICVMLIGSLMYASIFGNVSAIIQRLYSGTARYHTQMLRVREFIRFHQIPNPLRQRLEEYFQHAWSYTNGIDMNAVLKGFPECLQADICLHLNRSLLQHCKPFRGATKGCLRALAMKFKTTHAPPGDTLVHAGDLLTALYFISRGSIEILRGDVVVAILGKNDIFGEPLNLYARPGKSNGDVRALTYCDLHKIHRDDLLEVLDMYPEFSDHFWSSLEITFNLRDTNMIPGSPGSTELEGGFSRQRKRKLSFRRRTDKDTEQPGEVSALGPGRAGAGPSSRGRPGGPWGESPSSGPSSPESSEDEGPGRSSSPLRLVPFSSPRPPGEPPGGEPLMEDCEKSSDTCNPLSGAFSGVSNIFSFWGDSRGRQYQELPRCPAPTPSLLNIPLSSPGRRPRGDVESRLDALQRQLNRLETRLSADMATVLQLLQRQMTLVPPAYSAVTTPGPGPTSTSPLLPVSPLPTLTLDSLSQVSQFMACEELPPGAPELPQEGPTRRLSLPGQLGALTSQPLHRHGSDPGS

ROS = ROS (Homo sapiens (Human), UniProt P08922); experiment: In vitro kinase activity assay (LANCE TR-FRET); assay type: biochemical; details: read-out: ROS (nM) IC50
[5] = Caco-2 cell permeation study; assay type: in vitro ADME; details: human; for Papp A→B at 2 h, 10 μM: Caco-2, pH 6.5, 10 μM, apical pH 6.5, 2 h; for Papp B→A at 2 h, 10 μM: Caco-2, pH 7.4, 10 μM, basolateral pH 7.4, 2 h; for efflux ratio at 2 h, 10 μM: Caco-2, Caco-2;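 for all read-outs here: Caco-2 monolayers grown for 21–28 days with integrity confirmed by TEER, apical buffer HBSS with MES, basolateral buffer HBSS with HEPES, compound levels quantified by LC/MS/MS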
Caco-2 cells = experiment: Caco-2 cell permeation study; assay type: in vitro ADME; details: 10 μM; for Papp (10−6 cm/sec) A to B: apical pH 6.5, 2 h;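 for all read-outs here: Caco-2 monolayers grown for 21–28 days with integrity confirmed by TEER, apical buffer HBSS with MES, basolateral buffer HBSS with HEPES, compound levels quantified by LC/MS/MS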
NB-1 neuroblastoma cells = experiment: Cellular assay, 3 day cell viability (WST-1); assay type: cell-based; details: 72 h
[6] = Rat pharmacokinetics / bioavailability; assay type: in vivo; details: male, Sprague-Dawley, plasma
ALK (WT) = ALK (WT) (Homo sapiens (Human), UniProt Q9UM73); experiment: Cell free kinase assay (Carna Biosciences kinases); assay type: biochemical
EML4-ALK BaF3 cells = experiment: BaF3 stables cell viability (WST-1); details: Mus musculus, BaF3, read-out: BaF3 Stables IC50 nM EML4-ALK
[7] = molecular target: T1, hERG (human ether-a-go-go related gene) potassium channel; details: 5 min
hERG potassium channel = hERG potassium channel (Homo sapiens (Human), UniProt Q12809); experiment: in vitro
[8] = 3 days, WST-1, read-out: SUDHL-1 IC50
[9] = 3 days, WST-1, read-out: U937 IC50
[10] = Individual Data Points (% Inhibition)

Compound	IC50 (TrkA; read-out: TrKA IC50) [nM]	IC50 (TrkA; read-out: TrkA (nM) IC50) [nM]	IC50 (U937 lymphoma cells; [9]) [µM]	IC50 (ALK; read-out: ALK (nM) IC50) [nM]	IC50 (ALK; read-out: ALK IC50) [nM]	IC50 (cMET) [nM]	half-life at 0.5 μM (in vitro [1]) [h]	microsomal CLint at 0.5 μM (in vitro [1]) [µL/min/mg]	microsomal CLint at 0.5 μM (in vitro [2]) [µL/min/mg]	half-life at 0.5 μM (in vitro [2]) [h]	IC50 (K299 lymphoma cells) [µM]	microsomal CLint at 0.5 μM [3] [µL/min/mg]	half-life at 0.5 μM [3] [h]	IC50 [4] [µM]	Papp A→B at 2 h, 10 μM [5] [nm/s]	Papp B→A at 2 h, 10 μM [5] [nm/s]	further results
CC(Cc1cc(F)ccc1F)Nc1cc[nH]c(=O)c1-c1nc2cc3c(cc2[nH]1)C(=O)N(CCN(C)C)C3 (racemic) [Compound 18, 2-(4-(1-(2,5-Difluorophenyl)propan-2-ylamino)-2-oxo-1,2-dihydropyridin-3-yl)-6-(2-(dimethylamino)ethyl)-6,7-dihydroimidazo[4,5-f]isoindole-5(1H)-one]	4	4.33	> 3	9.16	9	1000 to 3000	0.343	33.3	< 5.8	> 2	0.265	29.4	0.393	5.42			IC50 (RET): 13.1 nM; IC50 (SUDHL-1 lymphoma cells; [8]): 0.172 µM; IC50 (ROS): 0.688 nM
CC(Oc1cc(-c2cnn(C3CCNCC3)c2)cnc1N)c1c(Cl)ccc(F)c1Cl (racemic) [PF2341066, crizotinib, reference compound]															< 2	507	Papp (10−6 cm/sec) A to B (Caco-2 cells; listed as Pfizer): >0.2 10−6 cm/sec; Papp (10−6 cm/sec) A to B (Caco-2 cells; listed as Pfizer (PF2341066)): <0.2 10−6 cm/sec; Papp (10−6 cm/sec) B to A (Caco-2 cells; basolateral pH 7.4, 2 h): 50.7 10−6 cm/sec; IC50 (NB-1 neuroblastoma cells; read-out: GTx-NB-1 IC50 (uM)): 0.167 µM; IC50 (NB-1 neuroblastoma cells; read-out: NB-1 IC50(μM)): 0.167 µM; IC50 (SUDHL-1 lymphoma cells; read-out: GTx-SUDHL-1 IC50 (uM)): 0.132 µM; IC50 (SUDHL-1 lymphoma cells; read-out: SUDHL-1 IC50(μM)): 0.132 µM; IC50 (U937 lymphoma cells; read-out: GTx-U937 IC50 (uM)): 1.67 µM; IC50 (U937 lymphoma cells; read-out: U937 IC50(μM)): 1.67 µM; MRT ([6]; iv, 10 mg/kg I.V.): 1.88 h; Cmax ([6]; po, 10 mg/kg P.O.): 0.0583 µg/mL; Tmax ([6]; po, 10 mg/kg P.O.): 5.25 h
C[C@@H](Cc1c(F)c(F)cc(F)c1F)Nc1cc[nH]c(=O)c1-c1nc2cc3c(cc2[nH]1)CN(CCN(C)C)C3=O (single isomer, unassigned) [Compound 1 R isomer]																	cell free activity (in words) (ALK (WT)): inactive; IC50 (EML4-ALK BaF3 cells): 1060 nM
C[C@@H](Cc1c(F)c(F)cc(F)c1F)Nc1cc[nH]c(=O)c1-c1nc2cc3c(cc2[nH]1)C(=O)N(CCN(C)C)C3=O [Compound 2, (S)-6-(2-(Dimethylamino)ethyl)-2-(2-oxo-4-((1-(2,3,5,6-tetrafluorophenyl)propan-2-yl)amino)-1,2-dihydropyridin-3-yl)imidazo[4,5-f]isoindole-5,7(1H,6H)-dione]	12	12.2	> 10	14	14	14					1.92			> 30	< 2	36	efflux ratio at 2 h, 10 μM [5]: > 17.8; IC50 (NB-1 neuroblastoma cells; 3 days, WST-1, read-out: NB-1 IC50): 0.666 µM; IC50 (RET): 25.8 nM; IC50 (SUDHL-1 lymphoma cells; [8]): 2.74 µM; IC50 (ROS): 0.436 nM
C[C@@H](Cc1c(F)c(F)cc(F)c1F)Nc1cc[nH]c(=O)c1-c1nc2cc3c(cc2[nH]1)CN(CCN1CCCC1)C3=O [Compound 3]														3.17			Individual Data Points (% Inhibition) ([7]; 0.3 µM): 11.2%; Individual Data Points (% Inhibition) ([7]; 3 µM): 49.7%; Individual Data Points (% Inhibition) ([7]; 10 µM): 70.8%; Individual Data Points (% Inhibition) ([7]; 30 µM): 81.7%; inhibition at 5 min, 0.3 µM (hERG potassium channel; [10]): 13.2%; inhibition at 5 min, 3 µM (hERG potassium channel; [10]): 49.1%; inhibition at 5 min, 10 µM (hERG potassium channel; [10]): 75.7%; inhibition at 5 min, 30 µM (hERG potassium channel; [10]): 87.2%; inhibition at 5 min, 0.3 µM (hERG potassium channel; Mean % hERG Inhibition): 12.2%; inhibition at 5 min, 3 µM (hERG potassium channel; Mean % hERG Inhibition): 49.4%; inhibition at 5 min, 10 µM (hERG potassium channel; Mean % hERG Inhibition): 73.3%; inhibition at 5 min, 30 µM (hERG potassium channel; Mean % hERG Inhibition): 84.4%
C[C@@H](Cc1c(F)c(F)cc(F)c1F)Nc1cc[nH]c(=O)c1-c1nc2cc3c(cc2[nH]1)C(=O)N(c1cccnc1)C3=O [Compound 12, (S)-2-(2-oxo-4-((1-(2,3,5,6-tetrafluorophenyl)propan-2-yl)amino)-1,2-dihydropyridin-3-yl)-6-(pyridin-3-yl)imidazo[4,5-f]isoindole-5,7(1H,6H)-dione]	20	20.4		47.3	47	> 10000	> 2	< 5.8	< 5.8	> 2	> 10	< 5.8	> 2	> 3	< 2	< 2	
C[C@@H](Cc1c(F)c(F)cc(F)c1F)Nc1cc[nH]c(=O)c1-c1nc2cc3c(cc2[nH]1)C(O)N(c1cccnc1)C3=O (stereo partly drawn) [Compound 13, 7-Hydroxy-2-(2-oxo-4-4(((S)-1-(2,3,5,6-tetrafluorophenyl)propan-2-yl)amino)-1,2-dihydropyridin-3-yl)-6-(pyridin-3-yl)-6,7-dihydroimidazo[4,5-f]isoindol-5(1H)-one]	6		> 3			> 10000	0.629	18.4	8.77	1.32	0.787	7.89	1.46		< 2	19	efflux ratio at 2 h, 10 μM [5]: > 9.5
COC1c2cc3nc(-c4c(N[C@@H](C)Cc5c(F)c(F)cc(F)c5F)cc[nH]c4=O)[nH]c3cc2C(=O)N1c1cccnc1 (stereo partly drawn) [Compound 14, 7-Methoxy-2-(2-oxo-4-(((S)-1-(2,3,5,6-tetrafluorophenyl)propan-2-yl)amino)-1,2-dihydropyridin-3-yl)-6-(pyridin-3-yl)-6,7-dihydroimidazo[4,5-f]isoindol-5(1H)-one]	42	41.6		174	174	> 10000	1.71	6.76	< 5.8	> 2		< 5.8	> 2				
